From patent publication EP4772500A1, “NOVEL ISOXAZOLE COMPOUND AS TM4SF5-SPECIFIC INHIBITOR AND USE THEREOF” (Seoul National University R&DB Foundation, priority 2023, dated 2025)

What was measured:
TM4SF5 [1] = biological target: T1, TM4SF5 (Homo sapiens, UniProt O14894); experiment: TM4SF5 expression-dependent cell line models (summary statement); format: cell-based; design: expressed in transfected cells; captured on streptavidin agarose
T1 sequence (O14894 1-197): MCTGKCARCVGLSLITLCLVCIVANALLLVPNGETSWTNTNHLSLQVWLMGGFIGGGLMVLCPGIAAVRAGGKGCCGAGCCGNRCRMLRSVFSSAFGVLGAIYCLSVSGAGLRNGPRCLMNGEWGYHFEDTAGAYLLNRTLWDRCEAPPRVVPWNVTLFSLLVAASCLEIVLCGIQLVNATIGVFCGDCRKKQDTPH
Text: (§1) In addition, the isoxazole compounds are capable of reversing both (i) an increase in PD-L1 expression and stabilization through direct binding mediated by TM4SF5 and (ii) induction of PD-1 expression in T cells, which suppresses T-cell activation and cancer cell killing functions.

TM4SF5 [2] = biological target: T1, TM4SF5; experiment: TM4SF5 expression-dependent animal models (summary statement); format: in vivo; design: expressed in transfected cells; captured on streptavidin agarose
Text: as §1

[3] = system: liver cancer patient-derived cancer fragments (HCC cube) confirmed to express TM4SF5; experiment: TM4SF5-expressing HCC-PDX (patient-derived tissue xenograft) model; format: in vivo, NOD/SCID mice; conditions: for body weight: 5 mg/kg IP twice a week (FIG. 21c); for tumor volume: vs vehicle (FIG. 21c); for PD-L1 expression / SLAMF7 staining / expression of TM4SF5: immunohistochemistry (FIG. 21e); for expressions of Ki67, AFP, F4/80, CCL2 and CCL5, and laminin γ2: immunohistochemistry (FIG. 21d); for cancer formation: immunohistochemistry or H&E staining (FIG. 21d)
Experimental: The experiment was conducted by obtaining patient-derived liver cancer segments (P0; HCC cube, 1 mm^3) confirmed to express TM4SF5 from Seoul National University Hospital, which passed the normal IRB approval process (H-2102-059-1195). The hair from the right thigh to the flank of 6-week-old male NOD/SCID mice was removed, and the mice were anesthetized by inhalation with […] isoflurane. Thereafter, a cancer segment was implanted into the right […] of the mice. When the cancer segments were engrafted and grew beyond a certain size at 4 to 5 weeks after implanting the tissue, the animals were sacrificed to obtain cancer segments (P1). The cancer segments were cut into a size of 1 mm^3 and placed in cryotubes with Recovery-Cell Culture Freezing Medium (Gibco) and stored in a […] liquid nitrogen tank. After obtaining P2 and P3 cancer segments in the same manner as above, one P3 cancer segment (1 mm^3) was implanted per 6-week-old male NOD/SCID mouse to establish the HCC-PDX mouse model used in this experiment. From the 8th day after implanting the cancer segments, vehicle, drug ST-5-001, or ST-5-002 was intraperitoneally injected at 5 mg/kg twice a week for a total of 6 times. On the 28th day after implanting the cancer tissue, the animals were sacrificed, and liver cancer tissues were obtained and used for analysis.
(a-d) A TM4SF5-expressing HCC-PDX model was established by implanting liver cancer patient-derived cancer fragments (HCC cube, 1 mm^3), confirmed to express TM4SF5, into the right thigh of 6-week-old male NOD/SCID mice (n=8) deficient in T, B, and NK immune cells. Starting from the 8th day after the tissue implantation, vehicle, drug ST-5-001, or ST-5-002 was intraperitoneally injected at 5 mg/kg twice a week on the indicated dates (a). After 6 injections, the animals were sacrificed on the 28th day after the cancer tissue implantation, liver tissues were obtained, and images of the livers were taken (b). From the 8th day after the implantation, body weight and tumor volume were measured and recorded on each drug injection day (c). Meanwhile, for a portion of the liver tissues, the expression level, distribution, and localization of each factor, as well as the degree of damage to the liver cancer tissue, were confirmed through immunohistochemistry or H&E staining for the given protein factors (d).

[4] = system: TM4SF5-expressing cells (SNU449T7); experiment: 2D cell growth/proliferation; format: cell-based, human; conditions: 2D environment, drug every 24 hours (FIG. 3a)
Experimental: The drugs treated were the positive control drug TSAHC or the ST-1-025 isoxazole compound at the given concentrations. From the time of starting culture (0 day), (FIG. 3a) in the case of 2D culture, the number of cells was measured after treating with the drug every 24 hours, or (FIG. 3b) in a 3D environment, the proliferation of cells (spheres) was observed and photographed with an optical microscope on the 5th and 7th days after a single drug treatment at the start of culture.

| concentrations at which effects were exhibited (TM4SF5 [1]) [µM] | doses at which effects were exhibited (TM4SF5 [2]) [mpk] | SMILES | body weight [3] | inhibitory effect on liver cancer formation ([3]; 5 mg/kg IP twice a week, 6 times, images (FIG. 21b)) | tumor volume ([3]; 5 mg/kg IP twice a week) | PD-L1 expression [3] | SLAMF7 staining [3] | expression of TM4SF5 [3] | expressions of Ki67, AFP, F4/80, CCL2 and CCL5, and laminin γ2 [3] | cancer formation [3] | growth or proliferation [4] |
| --- | --- | --- | --- | --- | --- | --- | --- | --- | --- | --- | --- |
| ≤ 1 | ≤ 2.5 | Cc1ccc(C(=O)Nc2ccc(-c3cc(-c4ccc(O)cc4)no3)cc2)cc1 [ST-5-002, N-(4-(3-(4-hydroxyphenyl)isoxazole-5-yl)phenyl)-4-methylbenzamide] | not affected | distinct | significantly reduced | decrease | infiltrating into the cancer site | not significantly different | significantly inhibited and lowered | inhibited |  |
|  |  | COc1ccc(-c2cc(-c3ccc(N)cc3)no2)cc1 [ST-1-025, 4-(5-(4-methoxyphenyl)isoxazole-3-yl)aniline] |  |  |  |  |  |  |  |  | decreased |
|  |  | Cc1ccc(S(=O)(=O)Nc2ccc(C(=O)/C=C/c3ccc(O)cc3)cc2)cc1 [TSAHC, 4'-(p-toluenesulfonylamino)-4-hydroxychalcone, reference compound] |  |  |  |  |  |  |  |  | decreased |
| ≤ 1 | ≤ 2.5 | CC(=O)Nc1ccc(-c2cc(-c3ccc(O)cc3)no2)cc1 [ST-5-001, N-(4-(3-(4-hydroxyphenyl)isoxazole-5-yl)phenyl)acetamide] | not affected |  | significantly reduced | decrease | infiltrating into the cancer site | not significantly different | significantly inhibited and lowered | inhibited |  |
